Results on 1 compound are retold here after patent US20170079296A1, “Methods For Treating Plants Or Fruits” (The United States of America, as represented by the …, priority 2015, published 2017).

Molecules are shown by their SMILES.

For test [1], the system named is bananas. The experiment in a line: Color change of bananas after ethylene mediated ripening treatment (colorimeter). It counts as in vivo. To be noted: banana surface color after ripening treatment (48 hours). The protocol: (§1) The color change of the produce was measured using a Minolta colorimeter (Minolta Co. Ltd, Japan). The L values reported were means of 12 readings; three readings from each side of each of the bananas, and two readings per avocado. For bananas, ‘a’ was an indicator of green, and higher ‘a’ value meant less green; ‘b’ was an indicator of yellow, and higher ‘b’ value meant more yellow. For avocados, the degree of browning was expressed by the percent decrease in the L value calculated by subtracting the L value of treated and control samples measured at evaluation times from the time zero L value obtained from untreated samples measured immediately after cutting, divided by the time zero value and multiplied by 100.

Test [2] relates to bananas. Nature of the test: Texture (tensile property, firmness) of bananas after ripening treatment. It counts as in vivo, banana. The protocol: (§2) Each measurement was repeated at least three times. […] Five replicates were measured for each measurement.
(§3) Tensile Property. […] At least five replicates were measured for each treatment.

Another test has as its system climacteric produce. Nature of the test: Controlled ripening of climacteric produce. It counts as in vivo.
In test [3] the test system is avocados. Nature of the test: Color change of avocados after ethylene mediated ripening treatment (colorimeter). It counts as in vivo, avocado. As for the experimental part: as §1
In test [4] the test system is avocados. To be noted: after 48 hours of treatment. As for the experimental part:
as §2, §3

Where [5] appears, read: avocado surface color after ripening treatment (48 hours).

Description for climacteric produce: Avacados and grocery bananas (pretreated at warehouse or retail facility) were acquired directly from local supermarket, and ‘non-gassed’ bananas were directly purchased from local produce distribution center (Coastal Sunbelt, Jessup, Md.).

In the test with bananas [1], `C=C` [ethylene] displayed an L of 66.74 ± 0.77, a c of 45.80 ± 4.64 and a h of 92.08 ± 0.83. The compound further displayed an a with bananas [1] (higher a = less green) of −1.66 ± 0.57. Also, the b in the test on bananas [1] (higher b = more yellow) stood at 45.77 ± 4.60. In addition, in the test with bananas [2], the “Young's modulus (initial slope): change of elasticity of bananas” value was “less elastic and more viscous”. In addition, in the test on climacteric produce (after 48 hours of treatment), the “ripening state of samples” value was “fully ripened”. For the same compound, the “total ripening time required” value in the test with climacteric produce (versus no ethylene treatment) is “reduced by a half”. Besides, the “skin color of avocado” value in the test with avocados [3] (after treatment, in words) is listed as “darkened slightly”. In the test with avocados [3] (setting [5]), this compound came in with an L of 30.17 ± 0.23, an a of −1.31 ± 3.01, a b of 13.54 ± 1.66 and a c of 13.60 ± 3.44. Besides, the h in the test with avocados [3] (setting [5]) amounted to 95.53 ± 0.29. For the same compound, in the test with avocados [4], the avocado flesh texture result was “softened significantly”.
